Source: patent US12161616B2, “Combination therapy comprising an omega-3 fatty acid, a folate species and a vitamin B12 species” (Oxford University Innovation Limited, priority 2014, dated 2024)

Tested on: brain atrophy rate in patients with a diagnosis of MCI
Assay: VITACOG trial: whole brain atrophy per year from MRI scans (SIENA)
Type: in vivo, human
Details: for BAR (brain atrophy rate): entire study group
Protocol: This study was conducted as a part of the VITACOG trial, ‘Homocysteine and B vitamins in cognitive impairment’, and was carried out according to the principles of the Declaration of Helsinki and received approval of the Oxfordshire NHS research ethics committee A (COREC 04/Q1604/100). All participants gave their written informed consent. The study protocol and participants, along with inclusion and exclusion criteria, have been described in detail elsewhere (Smith et al, PLOS One 2010; 5 (9); e12244.doi10.1371/journal.pone. 0012244). In short, 646 patients above 70 years of age with a diagnosis of MCI were assessed for eligibility. After randomization of eligible subjects, and some withdrawals, 133 started treatment with TrioBe Plus® (0.8 mg folic acid, 0.5 mg vitamin B12, and 20 mg vitamin B6, specifically 0.8 mg folic acid, 0.5 mg cyanocobalamin and 20 mg pyridoxine HCl) while 133 received placebo for a duration of 24 months. Participants were only included in this study if brain atrophy data was available.
The MRI protocol used in the VITACOG study has been described in detail elsewhere (Smith et al referenced above). In short, baseline and follow-up volumetric cranial MRI scans were carried out at the Oxford Centre for Clinical Magnetic Resonance Research using a 1.5 T MRI system (Sonata; Siemens Medical Solutions, Erlangen, Germany). Whole brain atrophy per year was estimated from MR images taken at baseline and follow-up, using the fully automated SIENA protocol which provides accuracy and robustness. Normalized brain volume at baseline was estimated from a single image using a cross-sectional method (SIENAX), and used as a covariate in the statistical analyses.
IBM SPSS for Windows, version 20, was used for all statistical analyses (IBM Corp., Armonk, NY, USA). Skewed fatty acids were normalized using their natural logarithms. Unless otherwise stated, fatty acid concentrations at baseline were used for statistical analyses. The main outcome in this study was to investigate the effect of B vitamin treatment on brain atrophy rates, based on baseline omega-3 fatty acid status. Analyses of variance, were used to further examine associations between the fatty acid variables and tHcy and brain atrophy. Two correction models were used. Model A was adjusted for age, sex, and initial brain volume, while model B also adjusted for plasma tHcy, ApoE status, education level, and baseline levels of diastolic blood pressure, triglyceride concentration, and creatinine concentration. When the entire study population was included in the analysis, tHcy measured at follow-up was used as covariate since this measure most likely represents the average tHcy during the trial. When the analysis was confined to the placebo group, tHcy at baseline was used.
Differences between atrophy rate in the placebo and B vitamin groups were assessed using Student's t test, while brain atrophy rates according to different levels of fatty acids (tertiles), were analyzed using ANCOVA. Where an ANCOVA indicated significant differences between tertiles, Bonferroni corrected post hoc comparisons were made between the lowest and the two higher tertiles. […] P<0.05 was considered statistically significant in all analyses.

[1] = HIGH tHcy at follow-up, middle baseline tertile, Model A
[2] = HIGH tHcy at follow-up, middle baseline tertile, Model B
[3] = HIGH tHcy at follow-up, top baseline tertile, Model A
[4] = HIGH tHcy at follow-up, top baseline tertile, Model B
[5] = LOW tHcy at follow-up, middle baseline tertile, Model A
[6] = LOW tHcy at follow-up, middle baseline tertile, Model B
[7] = LOW tHcy at follow-up, top baseline tertile, Model A
[8] = LOW tHcy at follow-up, top baseline tertile, Model B
[9] = HIGH tHcy at follow-up, lowest baseline tertile (DHA <245 μM, EPA <136 μM), Model A
[10] = HIGH tHcy at follow-up, lowest baseline tertile (DHA <245 μM, EPA <136 μM), Model B
[11] = HIGH tHcy at follow-up, middle baseline tertile (DHA 245-345 μM, EPA 136-222 μM), Model A
[12] = HIGH tHcy at follow-up, middle baseline tertile (DHA 245-345 μM, EPA 136-222 μM), Model B
[13] = HIGH tHcy at follow-up, top baseline tertile (DHA >345 μM, EPA >222 μM), Model A
[14] = HIGH tHcy at follow-up, top baseline tertile (DHA >345 μM, EPA >222 μM), Model B
[15] = LOW tHcy at follow-up, lowest baseline tertile (DHA <245 μM, EPA <136 μM), Model A
[16] = LOW tHcy at follow-up, lowest baseline tertile (DHA <245 μM, EPA <136 μM), Model B
[17] = LOW tHcy at follow-up, middle baseline tertile (DHA 245-345 μM, EPA 136-222 μM), Model A
[18] = LOW tHcy at follow-up, middle baseline tertile (DHA 245-345 μM, EPA 136-222 μM), Model B
[19] = LOW tHcy at follow-up, top baseline tertile (DHA >345 μM, EPA >222 μM), Model A
[20] = LOW tHcy at follow-up, top baseline tertile (DHA >345 μM, EPA >222 μM), Model B

SMILES: CC/C=C\C/C=C\C/C=C\C/C=C\C/C=C\C/C=C\CCC(=O)O [22:6n-3 (DHA), Docosahexaenoic acid]
- Percent change of BAR compared to the lowest fatty acid tertile [1]: 7.7%
- Percent change of BAR compared to the lowest fatty acid tertile [2]: 5.7%
- Percent change of BAR compared to the lowest fatty acid tertile [3]: 8.6%
- Percent change of BAR compared to the lowest fatty acid tertile [4]: 0.4%
- Percent change of BAR compared to the lowest fatty acid tertile [5]: −34%
- Percent change of BAR compared to the lowest fatty acid tertile [6]: −36%
- Percent change of BAR compared to the lowest fatty acid tertile [7]: −37%
- Percent change of BAR compared to the lowest fatty acid tertile [8]: −43%
- BAR (brain atrophy rate) [9]: 1.08 percent brain whole brain reduction per year
- BAR (brain atrophy rate) [10]: 1.06 percent brain whole brain reduction per year
- BAR (brain atrophy rate) [11]: 1.12 percent brain whole brain reduction per year
- BAR (brain atrophy rate) [12]: 1.14 percent brain whole brain reduction per year
- BAR (brain atrophy rate) [13]: 1.13 percent brain whole brain reduction per year
- BAR (brain atrophy rate) [14]: 1.08 percent brain whole brain reduction per year
- BAR (brain atrophy rate) [15]: 1.09 percent brain whole brain reduction per year
- BAR (brain atrophy rate) [16]: 1.20 percent brain whole brain reduction per year
- BAR (brain atrophy rate) [17]: 0.71 percent brain whole brain reduction per year
- BAR (brain atrophy rate) [18]: 0.70 percent brain whole brain reduction per year
- BAR (brain atrophy rate) [19]: 0.68 percent brain whole brain reduction per year
- BAR (brain atrophy rate) [20]: 0.62 percent brain whole brain reduction per year

SMILES: CC/C=C\C/C=C\C/C=C\C/C=C\C/C=C\CCCC(=O)O [20:5n-3 (EPA), Eicosapentaenoic acid]
- Percent change of BAR compared to the lowest fatty acid tertile [1]: 18%
- Percent change of BAR compared to the lowest fatty acid tertile [2]: 11%
- Percent change of BAR compared to the lowest fatty acid tertile [3]: 9.5%
- Percent change of BAR compared to the lowest fatty acid tertile [4]: 4.3%
- Percent change of BAR compared to the lowest fatty acid tertile [5]: −30%
- Percent change of BAR compared to the lowest fatty acid tertile [6]: −27%
- Percent change of BAR compared to the lowest fatty acid tertile [7]: −33%
- Percent change of BAR compared to the lowest fatty acid tertile [8]: −40%
- BAR (brain atrophy rate) [9]: 1.02 percent brain whole brain reduction per year
- BAR (brain atrophy rate) [10]: 0.98 percent brain whole brain reduction per year
- BAR (brain atrophy rate) [11]: 1.19 percent brain whole brain reduction per year
- BAR (brain atrophy rate) [12]: 1.20 percent brain whole brain reduction per year
- BAR (brain atrophy rate) [13]: 1.11 percent brain whole brain reduction per year
- BAR (brain atrophy rate) [14]: 1.13 percent brain whole brain reduction per year
- BAR (brain atrophy rate) [15]: 1.07 percent brain whole brain reduction per year
- BAR (brain atrophy rate) [16]: 1.14 percent brain whole brain reduction per year
- BAR (brain atrophy rate) [17]: 0.73 percent brain whole brain reduction per year
- BAR (brain atrophy rate) [18]: 0.76 percent brain whole brain reduction per year
- BAR (brain atrophy rate) [19]: 0.69 percent brain whole brain reduction per year
- BAR (brain atrophy rate) [20]: 0.63 percent brain whole brain reduction per year
